From patent US20260345623A1, “NOVEL […] HETEROCYCLIC CARBALDEHYDE COMPOUND AND PHARMACEUTICAL COMPOSITION, CONTAINING SAME, FOR IRE1alpha INHIBITION” (HANMI PHARM. CO., LTD., priority 2022, published 2026) come the findings set out here.

This experiment deals with T1, spliced XBP1 mRNA (target of IRE endonuclease) in MCF-7 cancer cells (Homo sapiens, UniProt O75460).
T1 construct: tunicamycin ER stress; RT-PCR of spliced XBP1 mRNA (RNase domain activity)
Briefly: Spliced XBP1 mRNA Measurement Test (RT-PCR, tunicamycin-induced ER stress, MCF-7 cells). The class given is cell-based. The procedure: A reverse transcription polymerase chain reaction is a test method in which RNA is extracted from cells, reverse transcriptase is used to make cDNA, and relative mRNA expression level is measured through a polymerase chain reaction.
Briefly, MCF-7 cells were seeded in a 12-well plate and cultured in an incubator including 5% CO2 for one day. On the next day, compounds, which were 10-fold serially diluted from 10,000 nM, were pre-treated for 1 hour, and then, treated with 2 μg/mL tunicamycin for 6 or 24 hours to induce endoplasmic reticulum stress, followed by cell lysis to obtain RNA. RNA was subjected to the procedure of RNeasy Kits (Qiagen, 74106), and 5 μg of RNA sample was dissolved in a sample including reverse transcriptase and dNTP, and reverse transcription reaction was performed with a thermal cycler. The amount of mRNA of each of spliced XBP1 and total XBP1 was measured by a polymerase chain reaction through real time PCR by mixing each cDNA sample with a PCR reaction mixture including a primer pair capable of binding specifically to each target and SYBR green dye. The expression level of spliced XBP1 was corrected by the total expression level of XBP1, and the relative expression levels of spliced XBP1 between samples were compared and analyzed.

Setting [1] is: 1 hour pre-treatment with compound, 2 μg/mL tunicamycin 6 or 24 hours, spliced XBP1 corrected by total XBP1, read-out: XBP1 mRNA (IC50).
Setting [2] is: read-out: XBP1 mRNA (IC50), 1 hour pre-treatment with compound, 2 μg/mL tunicamycin 6 or 24 hours, spliced XBP1 corrected by total XBP1.

Like-named read-outs stand apart in the source and are kept apart here.

T1 sequence (O75460 19-977): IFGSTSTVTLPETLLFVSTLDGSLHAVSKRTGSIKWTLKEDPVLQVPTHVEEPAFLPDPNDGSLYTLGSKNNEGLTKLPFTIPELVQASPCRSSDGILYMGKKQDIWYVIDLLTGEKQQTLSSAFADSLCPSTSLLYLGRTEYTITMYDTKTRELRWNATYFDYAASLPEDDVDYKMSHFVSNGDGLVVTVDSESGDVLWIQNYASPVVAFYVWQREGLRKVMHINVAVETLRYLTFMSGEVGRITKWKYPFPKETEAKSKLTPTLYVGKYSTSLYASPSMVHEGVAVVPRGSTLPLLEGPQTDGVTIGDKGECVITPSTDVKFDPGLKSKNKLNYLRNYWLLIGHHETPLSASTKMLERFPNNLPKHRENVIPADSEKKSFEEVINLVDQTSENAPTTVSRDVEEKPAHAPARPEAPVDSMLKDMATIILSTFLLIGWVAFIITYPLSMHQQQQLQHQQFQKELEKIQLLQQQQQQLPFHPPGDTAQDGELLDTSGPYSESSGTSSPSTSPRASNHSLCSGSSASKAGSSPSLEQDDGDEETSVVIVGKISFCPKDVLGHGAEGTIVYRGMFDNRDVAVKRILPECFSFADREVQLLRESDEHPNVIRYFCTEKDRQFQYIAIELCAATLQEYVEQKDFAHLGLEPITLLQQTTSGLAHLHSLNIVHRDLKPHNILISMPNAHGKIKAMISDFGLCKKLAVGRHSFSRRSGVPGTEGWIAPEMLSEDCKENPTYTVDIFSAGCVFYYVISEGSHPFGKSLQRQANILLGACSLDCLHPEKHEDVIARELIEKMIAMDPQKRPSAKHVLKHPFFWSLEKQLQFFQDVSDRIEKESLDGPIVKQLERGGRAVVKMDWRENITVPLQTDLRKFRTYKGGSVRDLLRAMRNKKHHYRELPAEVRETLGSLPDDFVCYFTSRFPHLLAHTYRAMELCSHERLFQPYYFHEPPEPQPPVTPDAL

For `Cc1c(CC(=O)N2CCOCC2)c(=O)oc2c(C=O)c(O)c3c(c12)CCO3` [Example 1, 4-hydroxy-9-methyl-8-(2-morpholino-2-oxoethyl)-7-oxo-1,7-dihydro-2H-furo[3,2-f]chromene-5-carbaldehyde], under setting [1], the IC50 was below 100 nM.

As for `Cc1c(CC(=O)N2CCOCC2)c(=O)oc2c(C=O)c(O)c3c(c12)OCO3` [Example 2, 4-hydroxy-9-methyl-8-(2-morpholino-2-oxoethyl)-7-oxo-7H-[1,3]dioxolo[4,5-f]chromene-5-carbaldehyde], the IC50 under setting [1] is 100 to 200 nM.

For `Cc1c(CC(=O)N2CCOCC2)c(=O)oc2c(C=O)c(O)c3c(c12)CCCO3` [Example 3, 6-hydroxy-1-methyl-2-(2-morpholino-2-oxoethyl)-3-oxo-3,8,9,10-tetrahydropyrano[3,2-f]chromene-5-carbaldehyde], the IC50 under setting [1] is below 100 nM.

In the case of `Cc1c(CC(=O)N2CCC(C)CC2)c(=O)oc2c(C=O)c(O)c3c(c12)CCCO3` [Example 4, 6-hydroxy-1-methyl-2-(2-(4-methylpiperidin-1-yl)-2-oxoethyl)-3-oxo-3,8,9,10-tetrahydropyrano[3,2-f]chromene-5-carbaldehyde], under setting [1], the IC50 was above 200 nM.

As to `Cc1c(CC(=O)N2CCCC2)c(=O)oc2c(C=O)c(O)c3c(c12)CCCO3` [Example 5, 6-hydroxy-1-methyl-3-oxo-2-(2-oxo-2-(pyrrolidin-1-yl)ethyl)-3,8,9,10-tetrahydropyrano[3,2-f]chromene-5-carbaldehyde], the IC50 under setting [1] is below 100 nM.

`Cc1c(CC(=O)N2CCN(C)CC2)c(=O)oc2c(C=O)c(O)c3c(c12)CCCO3` [Example 6, 6-hydroxy-1-methyl-2-(2-(4-methylpiperazin-1-yl)-2-oxoethyl)-3-oxo-3,8,9,10-tetrahydropyrano[3,2-f]chromene-5-carbaldehyde]: under setting [2], the IC50 is below 100 nM.

In the case of `Cc1c(CC(=O)N2CCN(C(C)C)CC2)c(=O)oc2c(C=O)c(O)c3c(c12)CCCO3` [Example 7, 6-hydroxy-2-(2-(4-isopropylpiperazin-1-yl)-2-oxoethyl)-1-methyl-3-oxo-3,8,9,10-tetrahydropyrano[3,2-f]chromene-5-carbaldehyde], the IC50 under setting [2] was 100 to 200 nM.

As to `CCNC(=O)Cc1c(C)c2c3c(c(O)c(C=O)c2oc1=O)OCC3` [Example 8, N-ethyl-2-(5-formyl-4-hydroxy-9-methyl-7-oxo-1,7-dihydro-2H-furo[3,2-f]chromen-8-yl)acetamide], the IC50 under setting [1] was below 100 nM.

In the case of `CCN(CC)C(=O)Cc1c(C)c2c3c(c(O)c(C=O)c2oc1=O)OCC3` [Example 9, N,N-diethyl-2-(5-formyl-4-hydroxy-9-methyl-7-oxo-1,7-dihydro-2H-furo[3,2-f]chromen-8-yl)acetamide], the IC50 under setting [1] is below 100 nM.

On to `Cc1c(CC(=O)N2CCC(F)(F)C2)c(=O)oc2c(C=O)c(O)c3c(c12)CCCO3` [Example 10, 2-(2-(3,3-difluoropyrrolidin-1-yl)-2-oxoethyl)-6-hydroxy-1-methyl-3-oxo-3,8,9,10-tetrahydropyrano[3,2-f]chromene-5-carbaldehyde], for which the IC50 under setting [1] was below 100 nM.

In the case of `Cc1c(CC(=O)N2CCC(C)C2)c(=O)oc2c(C=O)c(O)c3c(c12)CCCO3` (centres unmarked) [Example 11, 6-hydroxy-1-methyl-2-(2-(3-methylpyrrolidin-1-yl)-2-oxoethyl)-3-oxo-3,8,9,10-tetrahydropyrano[3,2-f]chromene-5-carbaldehyde], the IC50 under setting [1] was below 100 nM.

For the compound `Cc1c(CC(=O)N2CCC(C)(C)C2)c(=O)oc2c(C=O)c(O)c3c(c12)CCCO3` [Example 12, 2-(2-(3,3-dimethylpyrrolidin-1-yl)-2-oxoethyl)-6-hydroxy-1-methyl-3-oxo-3,8,9,10-tetrahydropyrano[3,2-f]chromene-5-carbaldehyde], under setting [1], the IC50 is 100 to 200 nM.

Regarding `Cc1c(CC(=O)N2CCC2)c(=O)oc2c(C=O)c(O)c3c(c12)CCCO3` [Example 13, 2-(2-(azetidin-1-yl)-2-oxoethyl)-6-hydroxy-1-methyl-3-oxo-3,8,9,10-tetrahydropyrano[3,2-f]chromene-5-carbaldehyde], the IC50 under setting [1] fell in the range of 100 to 200 nM.

Regarding `COC1CCN(C(=O)Cc2c(C)c3c4c(c(O)c(C=O)c3oc2=O)OCCC4)C1` (centres unmarked) [Example 14, 6-hydroxy-2-(2-(3-methoxypyrrolidin-1-yl)-2-oxoethyl)-1-methyl-3-oxo-3,8,9,10-tetrahydropyrano[3,2-f]chromene-5-carbaldehyde], the IC50 under setting [1] lay in the range of 100 to 200 nM.

With `COC1CN(C(=O)Cc2c(C)c3c4c(c(O)c(C=O)c3oc2=O)OCCC4)C1` [Example 15, 6-hydroxy-2-(2-(3-methoxyazetidin-1-yl)-2-oxoethyl)-1-methyl-3-oxo-3,8,9,10-tetrahydropyrano[3,2-f]chromene-5-carbaldehyde], the IC50 under setting [1] was 100 to 200 nM.

Consider `Cc1c(CC(=O)N2CCC(F)C2)c(=O)oc2c(C=O)c(O)c3c(c12)CCCO3` (centres unmarked) [Example 16, 2-(2-(3-fluoropyrrolidin-1-yl)-2-oxoethyl)-6-hydroxy-1-methyl-3-oxo-3,8,9,10-tetrahydropyrano[3,2-f]chromene-5-carbaldehyde], for which the IC50 under setting [1] was above 200 nM.

For `CCNC(=O)Cc1c(C)c2c3c(c(O)c(C=O)c2oc1=O)OCCC3` [Example 17, N-ethyl-2-(5-formyl-6-hydroxy-1-methyl-3-oxo-3,8,9,10-tetrahydropyrano[3,2-f]chromen-2-yl)acetamide], the IC50 under setting [1] is below 100 nM.

In the case of `CCc1c(CC(=O)N2CCCC2)c(=O)oc2c(C=O)c(O)c3c(c12)CCCO3` [Example 18, 1-ethyl-6-hydroxy-3-oxo-2-(2-oxo-2-(pyrrolidin-1-yl)ethyl)-3,8,9,10-tetrahydropyrano[3,2-f]chromene-5-carbaldehyde], the IC50 under setting [1] is above 200 nM.

Consider `Cc1c(CC(=O)N2CC(F)C2)c(=O)oc2c(C=O)c(O)c3c(c12)CCCO3` [Example 19, 2-(2-(3-fluoroazetidin-1-yl)-2-oxoethyl)-6-hydroxy-1-methyl-3-oxo-3,8,9,10-tetrahydropyrano[3,2-f]chromene-5-carbaldehyde], for which the IC50 under setting [1] is 100 to 200 nM.

Turning to `Cc1c(CC(=O)N2CCC3(CC3)C2)c(=O)oc2c(C=O)c(O)c3c(c12)CCCO3` [Example 20, 6-hydroxy-1-methyl-3-oxo-2-(2-oxo-2-(5-azaspiro[2.4]heptan-5-yl)ethyl)-3,8,9,10-tetrahydropyrano[3,2-f]chromene-5-carbaldehyde], the IC50 under setting [1] is 100 to 200 nM.

Consider `Cc1c(CC(=O)N2CCCCC2)c(=O)oc2c(C=O)c(O)c3c(c12)CCCO3` [Example 21, 6-hydroxy-1-methyl-3-oxo-2-(2-oxo-2-(piperidin-1-yl)ethyl)-3,8,9,10-tetrahydropyrano[3,2-f]chromene-5-carbaldehyde], for which the IC50 under setting [1] is above 200 nM.

Consider `Cc1c(CC(N)=O)c(=O)oc2c(C=O)c(O)c3c(c12)CCCO3` [Example 22, 2-(5-formyl-6-hydroxy-1-methyl-3-oxo-3,8,9,10-tetrahydropyrano[3,2-f]chromen-2-yl)acetamide], for which the IC50 under setting [1] is above 200 nM.

Consider `CC(C)c1c(CC(=O)N2CCCC2)c(=O)oc2c(C=O)c(O)c3c(c12)CCCO3` [Example 23, 6-hydroxy-1-isopropyl-3-oxo-2-(2-oxo-2-(pyrrolidin-1-yl)ethyl)-3,8,9,10-tetrahydropyrano[3,2-f]chromene-5-carbaldehyde], for which, under setting [1], the IC50 was 100 to 200 nM.

On to `COCCNC(=O)Cc1c(C)c2c3c(c(O)c(C=O)c2oc1=O)OCCC3` [Example 24, 2-(5-formyl-6-hydroxy-1-methyl-3-oxo-3,8,9,10-tetrahydropyrano[3,2-f]chromen-2-yl)-N-(2-methoxyethyl)acetamide], for which the IC50 under setting [1] is below 100 nM.

`CCN(CC)C(=O)Cc1c(C)c2c3c(c(O)c(C=O)c2oc1=O)OCCC3` [Example 25, N,N-diethyl-2-(5-formyl-6-hydroxy-1-methyl-3-oxo-3,8,9,10-tetrahydropyrano[3,2-f]chromen-2-yl)acetamide]: under setting [1], the IC50 is below 100 nM.

As for `CC(=O)N1CCN(C(=O)Cc2c(C)c3c4c(c(O)c(C=O)c3oc2=O)OCCC4)CC1` [Example 26, 2-(2-(4-acetylpiperazin-1-yl)-2-oxoethyl)-6-hydroxy-1-methyl-3-oxo-3,8,9,10-tetrahydropyrano[3,2-f]chromene-5-carbaldehyde], the IC50 under setting [1] is above 200 nM.

On to `Cc1c(CC(=O)N2CC3CC2CO3)c(=O)oc2c(C=O)c(O)c3c(c12)CCCO3` (centres unmarked) [Example 27, 2-(2-(2-oxa-5-azabicyclo[2.2.1]heptan-5-yl)-2-oxoethyl)-6-hydroxy-1-methyl-3-oxo-3,8,9,10-tetrahydropyrano[3,2-f]chromene-5-carbaldehyde], for which the IC50 under setting [1] is below 100 nM.

Regarding `Cc1c(CC(=O)N2CCSCC2)c(=O)oc2c(C=O)c(O)c3c(c12)CCCO3` [Example 28, 6-hydroxy-1-methyl-3-oxo-2-(2-oxo-2-thiomorpholinoethyl)-3,8,9,10-tetrahydropyrano[3,2-f]chromene-5-carbaldehyde], under setting [1], the IC50 lay in the range of 100 to 200 nM.

In the case of `Cc1c(CC(=O)NCCN2CCOCC2)c(=O)oc2c(C=O)c(O)c3c(c12)CCCO3` [Example 29, 2-(5-formyl-6-hydroxy-1-methyl-3-oxo-3,8,9,10-tetrahydropyrano[3,2-f]chromen-2-yl)-N-(2-morpholinoethyl)acetamide], the IC50 under setting [1] was above 200 nM.
